Results taken from US8759334B2, “Compounds useful for the treatment of metabolic and inflammatory diseases” (Galapagos NV, priority 2011, dated 2014).

What was measured:
Type in all cases: cell-based
GPR43 [1] = molecular target: T1, GPR43 (Homo sapiens, UniProt O15552); test: Calcium mobilization assay without probenecid; settings: GPR43 stably expressing cells, triggered with sodium acetate at EC80, read-out: GPR43 assay without probenicid IC50
T1 construct: expressed in transfected cells
T1 sequence (O15552 1-330): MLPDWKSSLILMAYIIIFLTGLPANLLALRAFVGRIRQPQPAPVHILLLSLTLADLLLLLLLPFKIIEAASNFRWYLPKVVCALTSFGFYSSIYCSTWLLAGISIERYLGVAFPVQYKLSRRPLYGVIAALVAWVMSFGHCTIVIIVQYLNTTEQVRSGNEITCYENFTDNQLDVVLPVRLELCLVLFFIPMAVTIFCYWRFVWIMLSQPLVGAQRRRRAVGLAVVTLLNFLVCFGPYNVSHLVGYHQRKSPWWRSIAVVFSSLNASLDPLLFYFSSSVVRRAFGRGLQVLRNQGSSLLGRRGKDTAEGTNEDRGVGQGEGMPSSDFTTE
Procedure, shortened: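 In GPR43-expressing cells loaded with a Calcium 4 dye, antagonism was tested by a 15 min compound preincubation at 37 °C, then a sodium acetate challenge at EC80, with Ca-flux read on injection. For agonism, Ca-flux was recorded directly on compound injection.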

GPR43 [2] = molecular target: T1, GPR43; test: Calcium mobilization assay with probenecid; settings: GPR43 stably expressing cells; triggered with sodium acetate at EC80; 2.5 mM probenecid; read-out: GPR43 assay with probenicid IC50
Procedure, shortened: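 […] being added at rising concentrations to a GPR43 stable line. Before this, cells were dye-loaded (Calcium 4 with 2.5 mM probenecid) for 2 h at 37 °C after overnight plating.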

human neutrophils = test: Neutrophil migration assay; settings: neutrophils from human buffy coat, migration towards sodium acetate, read-out: human neutrophil migration inhibition EC50
Description: G Protein-Coupled Receptor 43 (GPR43) was described as an essential player in the process of neutrophil recruitment during intestinal inflammation.
The effect of agonists or antagonists for GPR43 can therefore be assayed in a neutrophil migration test. In the neutrophil migration assay, neutrophils, isolated from buffy coats from human volunteers, are treated with a compound for 30 minutes. Subsequently, the neutrophils are transferred to the upper wells of a Corning HTS transwell 96 permeable support system, of which the lower wells are filled with a sodium acetate solution.
The ACD buffer consists of 140 mM citric acid, 200 mM sodium citrate and 220 mM dextrose. The 6% dextran/0.9% NaCl solution consists of 15 g dextran T2000 and 2.25 g NaCl dissolved in 250 mL H2O.
A human buffy coat is diluted with an equal volume of ice cold DPBS. 20 mL of the diluted buffy coat is gently mixed with 4 mL of ACD buffer. Then, 12 mL of the 6% dextran/0.9% NaCl solution is added to the mixture and the samples are inverted gently up to 20 times. The total volume is transferred to a new recipient and incubated at room temperature for 1 h for complete separation of the two phases to occur. The yellowish supernatant is then transferred to a clean centrifugation tube and centrifuged for 12 minutes at 1300 rpm and 4° C. After centrifugation, the supernatant is discarded and the remaining cell pellet is rapidly resuspended in 12 mL of ice-cold H2O for red blood cell lysis to occur. After 20 seconds, 4 mL of ice-cold 0.6 M KCl is added. Samples are mixed carefully and centrifuged for 6 minutes at 1300 rpm, 4° C. The supernatant is discarded and the red blood cell lysis procedure is repeated one more time. […] After centrifugation for 12 min at 1300 rpm, 4° C., the supernatant is removed and the cell pellet, containing the neutrophils, is resuspended in 25 mL chemotaxis buffer.
A cell suspension of 8.9×10^6 cells per milliliter is prepared. 20 μL of compound solution in chemotaxis buffer is added to 180 μl cell suspension. The mixture is incubated at 37° C. for 30 minutes with Intermediate resuspension of the cells after 15 minutes. […] The receiver well of the transwell system is then filled with 200 μL chemotaxis buffer containing compound and chemotactic agent (sodium acetate). After incubation at 37° C. in 5% CO2 for 1 h, the upper plate of the transwell system is removed and the cell suspension in the receiver plate is transferred to a 96-well V-bottom plate. 50 μL of DPBS is added to the receiver plate to prevent remaining cells from drying out. The V-bottom plate is centrifuged for 6 minutes at 1500 rpm. The supernatant is removed and the cells are resuspended in 50 μL DPBS. The cells are then transferred back to the receiver plate of the transwell system. […] The plate is incubated for 10 minutes in the dark, while shaking. 170 μL of cell lysate is then transferred to a white 96-well plate and luminescence is measured. The detected luminescent signal is considered as linearly related to the number of migrated cells.

Row | IC50 (GPR43 [1]) [nM] | IC50 (GPR43 [2]) [nM] | EC50 (human neutrophils) [nM] | SMILES
1 | 0.01 to 100 | 0.01 to 100 |  | CC1(C(=O)N(CCCc2nnn[nH]2)Cc2ccc(Cl)cc2)CCN1C(=O)Cc1csc2ccccc12 (stereo not drawn) [Compound 100, 1-(2-Benzo[b]thiophen-3-yl-acetyl)-2-methyl-azetidine-2-carboxylic acid (4-chloro-benzyl)-[3-(1H-tetrazol-5-yl)-propyl]-amide]
2 | 101 to 500 | 101 to 500 |  | CC(=O)NCCN(Cc1ccc(Cl)cc1)C(=O)C1(C)CCN1C(=O)Cc1cc(C)cc(C)c1 (stereo not drawn) [Compound 101, 1-[2-(3,5-Dimethyl-phenyl)-acetyl]-2-methyl-azetidine-2-carboxylic acid (2-acetylamino-ethyl)-(4-chloro-benzyl)-amide]
3 | 501 to 1000 | 101 to 500 |  | Cc1cc(C)cc(CC(=O)N2CCC2(C)C(=O)N(CCNS(C)(=O)=O)Cc2ccc(Cl)cc2)c1 (stereo not drawn) [Compound 102, 1-[2-(3,5-Dimethyl-phenyl)-acetyl]-2-methyl-azetidine-2-carboxylic acid (4-chloro-benzyl)-(2-methanesulfonylamino-ethyl)-amide]
4 |  | 101 to 500 | 501 to 1000 | CC1(C(=O)N(CCCC(=O)O)Cc2ccc(Cl)cc2)CCN1C(=O)Cc1coc2ccccc12 (stereo not drawn) [Compound 103, 4-[[1-(2-Benzofuran-3-yl-acetyl)-2-methyl-azetidine-2-carbonyl]-(4-chloro-benzyl)-amino]-butyric acid]
5 |  | 101 to 500 | 101 to 500 | Cc1cc(C)cc(CC(=O)N2CCC2(C)C(=O)N(CC(=O)O)Cc2ccc3cn[nH]c3c2)c1 (stereo not drawn) [Compound 110, [{1-[2-(3,5-Dimethyl-phenyl)-acetyl]-2-methyl-azetidine-2-carbonyl}-(1H-indazol-6-ylmethyl)-amino]-acetic acid]
6 |  | 0.01 to 100 | 0.01 to 100 | Cc1cc(C)cc(CC(=O)N2CCC2(C)C(=O)N(CCCC(=O)O)Cc2ccc3cc[nH]c3c2)c1 (stereo not drawn) [Compound 113, 4-[{1-[2-(3,5-Dimethyl-phenyl)-acetyl]-2-methyl-azetidine-2-carbonyl}-(1H-indol-6-ylmethyl)-amino]-butyric acid]
7 |  | 101 to 500 | 101 to 500 | Cc1cc(C)cc(CC(=O)N2CCC2(C)C(=O)N(CCCC(=O)N2CCOCC2)Cc2ccc(Cl)cc2)c1 (stereo not drawn) [Compound 122, 1-[2-(3,5-Dimethyl-phenyl)-acetyl]-2-methyl-azetidine-2-carboxylic acid (4-chloro-benzyl)-(4-morpholin-4-yl-4-oxo-butyl)-amide]
8 |  | 101 to 500 | 0.01 to 100 | Cc1cc(C)cc(CC(=O)N2CCC2(C)C(=O)N(CCCC(=O)O)Cc2ccc3cn[nH]c3c2)c1 (stereo not drawn) [Compound 123, 4-[{1-[2-(3,5-Dimethyl-phenyl)-acetyl]-2-methyl-azetidine-2-carbonyl}-(1H-indazol-6-ylmethyl)-amino]-butyric acid]
9 |  | 0.01 to 100 | 101 to 500 | CC1(C(=O)N(CCCC(=O)O)Cc2ccc3cn[nH]c3c2)CCN1C(=O)Cc1csc2ccccc12 (stereo not drawn) [Compound 130, 4-[[1-(2-Benzo[b]thiophen-3-yl-acetyl)-2-methyl-azetidine-2-carbonyl]-(1H-indazol-6-ylmethyl)-amino]-butyric acid]
10 |  | 0.01 to 100 | 101 to 500 | CC1(C(=O)N(CCCC(=O)O)Cc2ccc3ccoc3c2)CCN1C(=O)Cc1csc2ccccc12 (stereo not drawn) [Compound 131, 4-{[1-(2-Benzo[b]thiophen-3-yl-acetyl)-2-methyl-azetidine-2-carbonyl]-benzofuran-6-ylmethyl-amino}-butyric acid]
11 |  | 0.01 to 100 | 0.01 to 100 | CC1(C(=O)N(CCCC(=O)O)Cc2ccc3cc[nH]c3c2)CCN1C(=O)Cc1coc2ccccc12 (stereo not drawn) [Compound 137, 4-[[1-(2-Benzofuran-3-yl-acetyl)-2-methyl-azetidine-2-carbonyl]-(1H-indol-6-ylmethyl)-amino]-butyric acid]

Row | SMILES | IC50 (GPR43 [1]) [nM] | IC50 (GPR43 [2]) [nM] | EC50 (human neutrophils) [nM]
12 | Cc1cc(C)cc(CC(=O)N2CCC2(C)C(=O)N(Cc2ccc(Cl)cc2)Cc2cc(O)no2)c1 (stereo not drawn) [Compound 132, 1-[2-(3,5-Dimethyl-phenyl)-acetyl]-2-methyl-azetidine-2-carboxylic acid (4-chloro-benzyl)-(3-hydroxy-isoxazol-5-ylmethyl)-amide] |  | 0.01 to 100 | 101 to 500
